Test results published in patent publication US10640507B2, “PBD antibacterial agents” (KING'S COLLEGE LONDON, priority 2015, dated 2020).
Where two headings read alike, the source gives them in different places.

Tests used:
Format in all cases: cell-based
[1] = tested on: HeLa (Cervical cancer cell line); assay: MTT cytotoxicity assay; conditions: Homo sapiens, MTT, 24 h continuous exposure, read-out: IC50 HeLa (Cervical cancer cell line)
Procedure: (§1) Two immortalised human cell lines, HeLa and WI38 were used for cytotoxicity screening of the compounds. HeLa is a human cervical cancer cell line and WI38 is a normal healthy cell line. The cell lines were obtained from the American Type Culture Collection. The cell-lines were maintained in monolayer culture in 75 cm2 flasks (TPP, Switzerland) under a humidified 5% CO2 atmosphere at 37° C. The HeLa cell line was maintained in Dulbecco's Modified Eagles Media (DMEM; Invitrogen) supplemented with foetal bovine serum (10% v/v; Invitrogen), L-glutamine (2 mM; Invitrogen), non-essential amino acids (1×; Invitrogen) and Penicillin-Streptomycin (1% v/v, Invitrogen). For WI38, Eagle's Minimum Essential Medium, and Penicillin-Streptomycin (1% v/v, Invitrogen) and foetal bovine serum (10%, nvitrogen) was used. For passaging, cells were washed with phosphate buffered saline [PBS] (GIBCO 14040, Invitrogen, UK), incubated with trypsine (GIBCO 25300, Invitrogen, UK), and re-seeded into fresh medium. For seeding, cells were counted using a Neubauer haemocytometer (Assistant, Germany) by microscopy (Nikon, USA) on a non-adherent suspension of cells that were washed in PBS, trypsinised, centrifuged at 8° C. at 8000 rpm for 5 min and re-suspended in fresh medium.
(§2) The cells were grown in normal cell culture conditions at 37° C. under a 5% CO2 humidified atmosphere using appropriate medium. The cell count was adjusted to 10^5 cells/ml/ and 20,000 cells were added per well. The cells were incubated for 24 hours and 1 μl of the appropriate inhibitor concentrations were to the wells in triplicates. After 24 h of continuous exposure to each compound, the cytotoxicity was determined using the MIT (3-(4,5-Dimethylthiazol-2-yl)-2,5-diphenyltetrazolium bromide) (Lancaster Synthesis Ltd, UK) colorimetric assay. Absorbance was quantified by spectrophotometry at λ=570 nm (Envision Plate Reader, PerkinElmer, USA). IC50 values were calculated by a dose-response analysis using the Prism Graphpad Prism® software. The cytotoxicity results are shown below in Table 12.

[2] = tested on: WI38 (Healthy cell line); assay: MTT cytotoxicity assay; conditions: Homo sapiens, WI-38; MTT; 24 h continuous exposure; highest concentration tested 20 μM; read-out: IC50 WI38 (Healthy cell line)
Procedure: as §1, §2

[3] = tested on: A. baumannii - AYE; conditions: drug at 4×MIC
Procedure: (§3) 1. Grow bacteria overnight.
(§4) 2. Subculture into an autoclaved conical flask containing 10 ml of TSB to an OD of 0.01 (˜1×10^7 Cfu/ml for KP-M6).
(§5) 4. Take aliquots (100 μl) at timepoints (0, 1, 2, 4, 6, 24 hours) and carry out a serial dilution in PBS (to remove drug and to dilute bacteria to countable numbers).
(§6) 5. Use the serial dilution to perform a Miles Misra—i.e. Add 3×10 μl spots of each dilution onto an agar plate. Incubate overnight and count colonies on spots in the morning.
(§7) 6. Control: Subculture bacteria alongside samples but with no antibiotic added. Take aliquots from this at every time point (0, 1, 2, 4, 6, 24 hours) and perform Miles Misra on these too (as detailed in points 4 and 5 above).
(§8) 7. After the first experiment, if the counts seen on Miles-Misra were zero, total viable counts were determined by spreading 200 μl in a streak down the centre of a TSB agar plate, waiting for the liquid to be absorbed and then spreading over the plate and checking for growth inhibition at the sight of the original streak.
(§9) 8. The compound is considered bactericidal if the inoculum was reduced >3 log10 CFU/ml and bacteriostatic if inoculum was reduced by 0-3 log10 CFU/ml.
(§10) Three measurements were taken for each compound at each time point. These measurements were averaged and the standard deviation was also calculated.

[4] = tested on: K. pneumonia - NCTC 13368; conditions: drug at 4×MIC
Procedure: as §3, §4, §5, §6, §7, §8, §9, §10

[5] = tested on: A. baumannii - NCTC13424; conditions: drug at 4×MIC
Procedure: as §3, §4, §5, §6, §7, §8, §9, §10

[6] = tested on: K. pneumonia - NCTC 13438; conditions: drug at 4×MIC
Procedure: as §3, §4, §5, §6, §7, §8, §9, §10

COc1cc2c(cc1OCCCC(=O)Nc1cc(C(=O)Nc3ccc4sc(C(=O)N(C)C)cc4c3)n(C)c1)N=C[C@@H]1CCCN1C2=O [KMR-14-33, (S)—N-(2-(dimethylcarbamoyl)benzo[b]thiophen-5-yl)-4-(4-((7-methoxy-5-oxo-2,3,5,11a-tetrahydro-1H-benzo[e]pyrrolo[1,2-a][1,4]-diazepin-8-yl)oxy)butanamido)-1-methyl-1H-pyrrole-2-carboxamide]
IC50 [1]: 15.6 µM
IC50 [2]: > 20 µM
Average (Log CFU/ml) ([3]; time-point 1 hours): 0 CFU/ml
n = 1 (Log CFU/ml) ([3]; time-point 1 hours): 0 CFU/ml
n = 2 (Log CFU/ml) ([3]; time-point 1 hours): 0 CFU/ml
n = 3 (Log CFU/ml) ([3]; time-point 1 hours): 0 CFU/ml
Average (Log CFU/ml) ([3]; time-point 2 hours): 0 CFU/ml
n = 1 (Log CFU/ml) ([3]; time-point 2 hours): 0 CFU/ml
n = 2 (Log CFU/ml) ([3]; time-point 2 hours): 0 CFU/ml
n = 3 (Log CFU/ml) ([3]; time-point 2 hours): 0 CFU/ml
Average (Log CFU/ml) ([3]; time-point 4 hours): 29 CFU/ml
n = 1 (Log CFU/ml) ([3]; time-point 4 hours): 0 CFU/ml
n = 2 (Log CFU/ml) ([3]; time-point 4 hours): 0 CFU/ml
n = 3 (Log CFU/ml) ([3]; time-point 4 hours): 85 CFU/ml
Average (Log CFU/ml) ([3]; time-point 6 hours): 1334 CFU/ml
n = 1 (Log CFU/ml) ([3]; time-point 6 hours): 0 CFU/ml
n = 2 (Log CFU/ml) ([3]; time-point 6 hours): 0 CFU/ml
n = 3 (Log CFU/ml) ([3]; time-point 6 hours): 4000 CFU/ml
Average (Log CFU/ml) ([3]; time-point 24 hours): 6667.333 CFU/ml
n = 1 (Log CFU/ml) ([3]; time-point 24 hours): 0 CFU/ml
n = 2 (Log CFU/ml) ([3]; time-point 24 hours): 20000 CFU/ml
n = 3 (Log CFU/ml) ([3]; time-point 24 hours): 0 CFU/ml
Average (Log CFU/ml) ([4]; time-point 1 hours): 18850000 CFU/ml
n = 2 (Log CFU/ml) ([4]; time-point 1 hours): 36000000 CFU/ml
viable count ([4]; time-point 1 hours): 1.7e+06 CFU/mL
Average (CFU/ml) ([4]; time-point 2 hours): 505000 CFU/ml
n = 2 (Log CFU/ml) ([4]; time-point 2 hours): 900000 CFU/ml
viable count ([4]; time-point 2 hours): 110000 CFU/mL
Average (CFU/ml) ([4]; time-point 4 hours): 0 CFU/ml
n = 2 (CFU/ml) ([4]; time-point 4 hours): 0 CFU/ml
viable count ([4]; time-point 4 hours): 0 CFU/mL
Average (CFU/ml) ([4]; time-point 6 hours): 0 CFU/ml
n = 2 (CFU/ml) ([4]; time-point 6 hours): 0 CFU/ml
viable count ([4]; time-point 6 hours): 0 CFU/mL
Average (CFU/ml) ([4]; time-point 24 hours): 0 CFU/ml
n = 2 (CFU/ml) ([4]; time-point 24 hours): 0 CFU/ml
viable count ([4]; time-point 24 hours): 0 CFU/mL
Average (Log CFU/ml) ([5]; time-point 1 hours): 1923.667 Log CFU/ml
n = 1 (Log CFU/ml) ([5]; time-point 1 hours): 0 Log CFU/ml
n = 2 (CFU/ml) ([5]; time-point 1 hours): 940 CFU/ml
n = 3 (CFU/mL) ([5]; time-point 1 hours): 4830 CFU/mL
Average (Log CFU/ml) ([5]; time-point 2 hours): 0 Log CFU/ml
n = 1 (Log CFU/ml) ([5]; time-point 2 hours): 0 Log CFU/ml
n = 2 (Log CFU/ml) ([5]; time-point 2 hours): 0 Log CFU/ml
n = 3 (Log CFU/ml) ([5]; time-point 2 hours): 0 Log CFU/ml
Average (Log CFU/ml) ([5]; time-point 4 hours): 0 Log CFU/ml
n = 1 (Log CFU/ml) ([5]; time-point 4 hours): 0 Log CFU/ml
n = 2 (Log CFU/ml) ([5]; time-point 4 hours): 0 Log CFU/ml
n = 3 (Log CFU/ml) ([5]; time-point 4 hours): 0 Log CFU/ml
Average (Log CFU/ml) ([5]; time-point 6 hours): 0 Log CFU/ml
n = 1 (Log CFU/ml) ([5]; time-point 6 hours): 0 Log CFU/ml
n = 2 (Log CFU/ml) ([5]; time-point 6 hours): 0 Log CFU/ml
n = 3 (Log CFU/ml) ([5]; time-point 6 hours): 0 Log CFU/ml
Average (Log CFU/ml) ([5]; time-point 24 hours): 2084 Log CFU/ml
n = 1 (CFU/mL) ([5]; time-point 24 hours): 6250 CFU/mL
n = 2 (Log CFU/ml) ([5]; time-point 24 hours): 0 Log CFU/ml
n = 3 (Log CFU/ml) ([5]; time-point 24 hours): 0 Log CFU/ml
Average (Log CFU/ml) ([6]; time-point 1 hours): 1000000 CFU/ml
n = 1 (Log CFU/ml) ([6]; time-point 1 hours): 1000000 CFU/ml
n = 2 (Log CFU/ml) ([6]; time-point 1 hours): 2000000 CFU/ml
n = 3 (Log CFU/ml) ([6]; time-point 1 hours): 1 CFU/ml
Average (Log CFU/ml) ([6]; time-point 2 hours): 34 CFU/ml
n = 1 (Log CFU/ml) ([6]; time-point 2 hours): 0 CFU/ml
n = 2 (Log CFU/ml) ([6]; time-point 2 hours): 100 CFU/ml
n = 3 (Log CFU/ml) ([6]; time-point 2 hours): 0 CFU/ml
Average (Log CFU/ml) ([6]; time-point 4 hours): 0 CFU/ml
n = 1 (Log CFU/ml) ([6]; time-point 4 hours): 0 CFU/ml
n = 2 (Log CFU/ml) ([6]; time-point 4 hours): 0 CFU/ml
n = 3 (Log CFU/ml) ([6]; time-point 4 hours): 0 CFU/ml
Average (Log CFU/ml) ([6]; time-point 6 hours): 0 CFU/ml
n = 1 (Log CFU/ml) ([6]; time-point 6 hours): 0 CFU/ml
n = 2 (Log CFU/ml) ([6]; time-point 6 hours): 0 CFU/ml
n = 3 (Log CFU/ml) ([6]; time-point 6 hours): 0 CFU/ml
Average (Log CFU/ml) ([6]; time-point 24 hours): 0 CFU/ml
n = 1 (Log CFU/ml) ([6]; time-point 24 hours): 0 CFU/ml
n = 2 (Log CFU/ml) ([6]; time-point 24 hours): 0 CFU/ml
n = 3 (Log CFU/ml) ([6]; time-point 24 hours): 0 CFU/ml

COc1cc2c(cc1OCCCC(=O)Nc1cc(C(=O)Nc3ccc4oc(C(=O)N5CCSCC5)cc4c3)n(C)c1)N=C[C@@H]1CCCN1C2=O [PP-A148, (S)-4-(4-((7-methoxy-5-oxo-2,3,5,11a-tetrahydro-1H-benzo-[e]pyrrolo[1,2-a][1,4]diazepin-8-yl)oxy)butanamido)-1-methyl-N-(2-(thiomorpholine-4-carbonyl)benzofuran-5-yl)-1H-pyrrole-2-carboxamide]
IC50 [1]: > 20 µM
IC50 [2]: > 20 µM
